pKi: −log10 of the molar value.
Tests used:
[1] = test system: retina (GCL, RGC), vision; experiment: acute IOP elevation, intravitreal C2l: GCL cell death, OKR visual acuity, RGC density
Protocol: FIG. 12C: H&E staining in retinal sections of WT mice after IOP elevation and intravitreal injection of vehicle or C2l. Vehicle or C2l (20 μM, 1 μI) was injected 2 h after IOP elevation or sham surgery. Eyes were collected 3 days after surgery for H&E staining. Scale bar=30 μm.
FIG. 12D: Quantification of GCL cell numbers, based on H&E stains, as described in FIG. 12C.
FIG. 12F: OKR spatial frequency thresholds of eyes measured 3 days after IOP elevation or sham surgery. Vehicle or C2l (20 μM, 1 μI) was injected intravitreally 2 h after surgery. Surgery and injection were always performed in the right eye (OD). OKR of the Left eye (OS) was measured as control.
One-way ANOVA followed by Bonferroni test.
FIG. 12H: RGC density in the retina of the eyes at 21 days after surgery, as described in FIG. 12F. Eyes were collected after OKR test 21 days after surgery. Brn-3a immunostaining was performed in retinal sections of the eyes. Brn-3a-positive cells in GCL were counted.
We used intravitreal C2l injection in order to locally deliver C2l to retina. First, we tested the delivery efficiency by injecting different doses of C2l intravitreally 2 h after IOP elevation in calpain-1 KO mice and analyzing SBDP levels in IPL at 4 h (FIG. 12A and B). […] In all subsequent experiments, 20 μM (1 μl) was used to examine the neuroprotective effects of intravitreal C2l injection. Eyes were collected 3 days after surgery for H&E staining.
To examine vision of mice after glaucoma, we tested the optokinetic reflex (OKR) in mice (FIG. 15A). OKR is the saccadic eye movement triggered by the movement of gratings in front of the mouse eye. Changing the frequency of gratings and determining the […] frequency triggering OKR, allows analyzing visual acuity of each eye. Acute IOP elevation or sham surgery was performed in the right eye (OD). Left eye (OS) served as a naive control. Intravitreal C2l or vehicle injection was performed 2 h after surgery. Three and 21 days after surgery, OKR was determined in both eyes (FIG. 5f,g). […] Mice were sacrificed after OKR test at day 21 and RGC densities were analyzed with brn-3a immunostaining in retinal sections (FIG. 12H).

calpain-2 = target: T1, calpain-2 (Homo sapiens, UniProt P17655); conditions: Li et al, 1996; read-out: Ki for calpain-2 (m-calpain), literature; cited from earlier work
T1 sequence (P17655 1-700): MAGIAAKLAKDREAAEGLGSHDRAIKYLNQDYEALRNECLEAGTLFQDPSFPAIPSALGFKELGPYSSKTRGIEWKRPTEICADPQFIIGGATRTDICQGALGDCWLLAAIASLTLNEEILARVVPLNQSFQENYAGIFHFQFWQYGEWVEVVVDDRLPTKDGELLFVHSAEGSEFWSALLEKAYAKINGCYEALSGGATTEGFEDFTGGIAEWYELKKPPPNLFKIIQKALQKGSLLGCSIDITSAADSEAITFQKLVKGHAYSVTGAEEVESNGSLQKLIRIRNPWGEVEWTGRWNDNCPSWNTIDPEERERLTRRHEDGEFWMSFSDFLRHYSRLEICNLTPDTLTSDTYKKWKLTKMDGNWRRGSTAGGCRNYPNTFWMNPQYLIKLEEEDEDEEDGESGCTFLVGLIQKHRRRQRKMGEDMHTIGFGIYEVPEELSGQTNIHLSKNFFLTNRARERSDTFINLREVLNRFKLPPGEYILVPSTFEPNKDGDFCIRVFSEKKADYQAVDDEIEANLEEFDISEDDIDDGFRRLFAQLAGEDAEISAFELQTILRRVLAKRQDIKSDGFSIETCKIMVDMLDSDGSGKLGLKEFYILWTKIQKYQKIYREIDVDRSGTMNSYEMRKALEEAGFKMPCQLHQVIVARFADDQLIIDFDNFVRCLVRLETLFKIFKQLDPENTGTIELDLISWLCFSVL
T1 sequence (P04632 1-268 partner): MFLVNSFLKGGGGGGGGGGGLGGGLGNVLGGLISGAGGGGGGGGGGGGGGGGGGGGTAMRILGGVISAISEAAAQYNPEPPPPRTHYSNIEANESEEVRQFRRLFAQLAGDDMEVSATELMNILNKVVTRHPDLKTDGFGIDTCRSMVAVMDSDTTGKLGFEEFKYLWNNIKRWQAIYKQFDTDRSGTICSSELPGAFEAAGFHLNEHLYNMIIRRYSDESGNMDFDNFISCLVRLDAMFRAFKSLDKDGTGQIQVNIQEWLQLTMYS

retina (GCL, IPL, RGC) = experiment: acute IOP elevation (acute angle closure glaucoma model), systemic (i.p.) C2l; assay type: in vivo, mice
[2] = injected 2 h after IOP elevation, WT mice, n=5

Question: Which results are given for `CCC(NC(=O)C(CC(C)C)NC(=O)OCc1ccccc1)C(=O)C(=O)NCc1cc(OC)cc(OC)c1` (racemic) [Formula 1, Z-Leu-Abu-CONH—CH2-C6H3 (3, 5-(OMe)2)]?
Answer: RGC counts (H&E), IOP-elevated eyes ([1]; 20 μM (1 μl) intravitreal 2 h after IOP elevation, 3 days): 101.3±9.2 cells/mm; Survival rate in GCL ([1]; 20 μM (1 μl) intravitreal 2 h after IOP elevation, vehicle 47.2±5.4%): 80.8±8.4%; RGC counts (H&E), sham eye ([1]; 20 μM (1 μl) intravitreal 2 h after surgery, 3 days): 128.1±7.2 cells/mm; RGC densities (brn-3a) in IOP elevated eyes ([1]; day 21): recovered; visual acuity (OKR) after increased IOP ([1]; intravitreal 2 h after surgery, day 3 and day 21): significantly improved; visual acuity (OKR) of sham eye versus vehicle ([1]; intravitreal injection in the sham eye): did not affect visual acuity; pKi (calpain-2): 7.66; survival rate of RGC versus vehicle (retina (GCL, IPL, RGC); injected 2 h after IOP elevation): significantly improved; RGC counts (brn-3a), IOP-elevated eye (retina (GCL, IPL, RGC); [2]): 37.1±2.5 cells/mm; RGC counts (brn-3a), sham eye (retina (GCL, IPL, RGC); [2]): 45.2±5.0 cells/mm; changes in PHLPP1 and pAkt after IOP elevation (retina (GCL, IPL, RGC); retina 3 h after IOP elevation, 0.3 mg/kg at 2 h): present in C2l-injected WT mice
